According to patent US9708272B2, “Inhibitors of α-amino-β-carboxymuconic acid semialdehyde decarboxylase” (TES Pharma S.r.l., priority 2014, dated 2017):

Assays:
ACMSD-1 = ACMSD-1 (Homo sapiens (Human), UniProt Q8TDX5); experiment: ACMSD-1 modulation in HEK293T cells transiently expressing ACMSD; format: cell-based; settings: about 50 nM to about 5 uM, 48 hrs to 72 hrs
Description: HEK293T cells are seeded and transfected to transiently express ACMSD. The cells are then stimulated with different concentrations of Compound 1, and then lysed to measure the ACMSD activity in a spectrophotometrical in vitro assay. The amount of the whole protein content in cell lysates is detected by Bradford analysis and used to get the specificity activity of the enzyme normalized in all samples.
HEK293T cells (ATCC) were seeded in six-well plates and transfected using Fugene HD to express transiently ACMSD. 24 hrs post transfection, the cells were stimulated for 48 hrs to 72 hrs with different concentrations of Compound 1 and then lysed to measure the ACMSD activity, by measuring the conversion of 30H-Anthranilic Acid into product (i.e. α-amino-beta-carboxymuconate-ε-semialdehyde, ACMS) in a spectrophotometrical in vitro assay. The amount of the whole protein content in cell lysates was detected by Bradford analysis. This value was used to get the specificity activity of the enzyme normalized in all samples (mU/ml or ΔE/Δt/mg of total protein).
Having determined the optimum stimulation time and transfection protocol cells were stimulated with different concentrations of Compound 1 (about 50 nM to about 5 uM).

SOD2 [1] = experiment: Modulation of SOD2 activity in AML-12 cells; format: cell-based, mouse; settings: 24 hours
Description: Primary hepatocytes or AML-12 cells are lysed and total protein concentration is determined using the Bradford assay. SOD2 activity is determined at indicated times after treatment with a compound of Formula (I), Formula (Ia), Formula (Ib), Formula (II), or Formula (III), or a pharmaceutically acceptable salt thereof, using a SOD Assay Kit. Absorbance is determined and results are expressed in U/ml/mg of protein according to the standard curve and measured protein concentration. […]
Primary hepatocytes or AML-12 cells were then lysed in a 20 mM HEPES buffer (Gibco), pH 7.2, containing 1 mM EGTA (Sigma), 210 mM mannitol (Sigma), and 70 mM sucrose (AMRESCO). Total protein concentration was determined using the Bradford assay (BioRad). SOD-2 activity was determined at indicated times after ACMSD inhibitor treatment by the SOD Assay Kit (Cayman Chemical) according to the manufacturer's instructions. […] Absorbance was determined with a Victor X4 multi-label plate reader (Perkin-Elmer) at 450 nm. Results are expressed in U/ml/mg of protein according to the standard curve and measured protein concentration.

SOD2 [2] = experiment: Modulation of SOD2 activity in murine primary hepatocytes; format: cell-based, mouse; settings: primary murine hepatocytes; 24 hours
Description: Primary hepatocytes or AML-12 cells are lysed and total protein concentration is determined using the Bradford assay. SOD2 activity is determined at indicated times after treatment with a compound of Formula (I), Formula (Ia), Formula (Ib), Formula (II), or Formula (III), or a pharmaceutically acceptable salt thereof, using a SOD Assay Kit. Absorbance is determined and results are expressed in U/ml/mg of protein according to the standard curve and measured protein concentration.
Primary hepatocytes were prepared from 8-12-week-old C57BL/6J mice by collagenase perfusion method. Mouse livers were perfused with Hank's balanced salt solution (HBSS, KCl, 5.4 mM; KH2PO4, 0.45 mM; NaCl, 138 mM; NaHCO3, 4.2 mM; Na2HPO4, 0.34 mM; glucose, 5.5 mM; […]; EGTA, 50 mM; CaCl2, 50 mM; pH 7.4). Livers were then washed at a rate of 5 ml/min through the portal vein. After washing, livers were perfused with collagenase (0.025%) solution. Cell viability was assessed by the trypan blue method. Isolated primary hepatocytes were plated with DMEM medium (Gibco) including 10% FCS, 10 units per ml penicillin and HEPES for buffering. The cells were maintained in culture at 37° C. in a humidified atmosphere of 5% CO2/95% air. After 6-8 hrs of attachment, this medium was replaced with media containing different concentrations of an ACMSD inhibitor (i.e., Compound 1 or Compound 17) or with the corresponding concentration of DMSO (as a control). Primary hepatocytes were harvested about 24 hrs later if not indicated differently.
Primary hepatocytes or AML-12 cells were then lysed in a 20 mM HEPES buffer (Gibco), pH 7.2, containing 1 mM EGTA (Sigma), 210 mM mannitol (Sigma), and 70 mM sucrose (AMRESCO). Total protein concentration was determined using the Bradford assay (BioRad). SOD-2 activity was determined at indicated times after ACMSD inhibitor treatment by the SOD Assay Kit (Cayman Chemical) according to the manufacturer's instructions. In order to specifically detect the SOD2 activity 2 mM potassium cyanide was added to the assay, which inhibited both Cu/Zn-SOD and extracellular SOD, resulting in the detection of only Mn-SOD (SOD-2) activity. Absorbance was determined with a Victor X4 multi-label plate reader (Perkin-Elmer) at 450 nm. Results are expressed in U/ml/mg of protein according to the standard curve and measured protein concentration.

[3] = test system: SIRT1-regulated genes (Sod2); experiment: RT-qPCR analysis of SIRT1-regulated genes in AML-12 cells; format: cell-based, mouse; settings: 24 hrs
Description: (§1) Cells (AML-12, Hepa-1.6, HEK-293, primary human and murine hepatocytes) are treated with different concentrations of a compound of Formula (I), Formula (Ia), Formula (Ib), Formula (II), or Formula (III), or a pharmaceutically acceptable salt thereof and the gene expression of ACMSD, Pgc1a, Sod1, and Sod2 (MnSOD) is determined using RT-qPCR. Total RNA is extracted from cells and the extracted RNA is treated with DNase and used for reverse transcription (RT).
(§2) Gene expression of ACMSD and genes known to be regulated by SIRT1, (an enzyme that is strictly NAD^+ dependent) such as Pgc1a, Sod1, Sod2 (MnSOD), were analysed in AML-12 cells, Hepa-1.6 cells and primary murine hepatocytes treated with Compound 1 or 17.
(§3) Cells (AML-12, Hepa-1.6, HEK-293, primary human and murine hepatocytes) were treated with different concentrations of Compound 1 or Compound 17. Total RNA was extracted from cells using TRIzol (Invitrogen) according to the manufacturer's instructions. The RNA was treated with DNase, and 2 μg of RNA was used for reverse transcription (RT). 50× diluted cDNA was used for RT-quantitative PCR (RT-qPCR) reactions. The RT-qPCR reactions were performed using the Light-Cycler system (Roche Applied Science) and a qPCR Supermix (QIAGEN) with the indicated primers. The average of at least three technical repeats was used for each biological data point.

[4] = test system: SIRT1-regulated genes (Sod2); experiment: RT-qPCR analysis of SIRT1-regulated genes in Hepa-1.6 cells; format: cell-based; settings: Hepa-1.6 hepatic cell line; 24 hrs
Description: as §1, §2, §3

AML-12 cells = experiment: Cytotoxicity (LDH release, ATP level) in AML-12 cells; format: cell-based, mouse; settings: 10 nM to 300 μM; 4 hrs; DMSO 1%
Description: (§4) HePG2 and AML-12 cells are seeded and a dose-response of the compound is performed at various concentrations. Cells are stimulated and the supernatant is used to perform LDH release as a measure of necrosis while the cells are lysed to detect ATP levels for determining cell viability.
(§5) Cytotoxicity: 20000 HePG2 and AML-12 cells were seeded in 96 well plate (Viewplate PerkinElmer). Dose-response of the compound in Table 2 was performed using HP D300 digital dispenser, ranging from 10 nM to 300 μM with constant DMSO 1% in medium. Cells were stimulated for 4 hrs at 37° C.; the supernatant was used to perform LDH release (Cytotox-one, Promega) as a measure of necrosis while the cells were lysed to detect ATP level for determining cell viability (Celltiter-glo, Promega) according to manufacturer's instructions.

HePG2 cells = experiment: Cytotoxicity (LDH release, ATP level) in HePG2 cells; format: cell-based; settings: 10 nM to 300 μM; 4 hrs; DMSO 1%
Description: as §4, §5

hERG potassium channel = hERG potassium channel (Homo sapiens (Human), UniProt Q12809); experiment: Predictor hERG assay, fluorescence polarization tracer displacement; settings: hERG channel affinity binding; DMSO 1%
From the text: The Predictor hERG assay kit is stably transfected with hERG potassium channel and a high-affinity red fluorescent hERG channel ligand and is used for the determination of hERG channel affinity binding of compounds of Formula (I), Formula (Ia), Formula (Ib), Formula (II), or Formula (III), or a pharmaceutically acceptable salt thereof. Compounds that bind to the hERG channel protein (competitors) are identified by their ability to displace the tracer which results in a lower fluorescence polarization.
The Predictor hERG assay kit (Invitrogen), containing membrane preparations from Chinese hamster ovary cells stably transfected with hERG potassium channel and a high-affinity red fluorescent hERG channel ligand (tracer), was used for the determination of hERG channel affinity binding of the test compounds in Table 2. Compounds that bind to the hERG channel protein (competitors) were identified by their ability to displace the tracer, resulting in a lower fluorescence polarization. The final concentration of DMSO in each well was maintained at 1%. The assays were performed according to the manufacturer's protocol (Invitrogen).

FoxO1 = FoxO1 phosphorylation levels in AML-12 cells (western blot); format: cell-based, mouse; settings: 24 hours, FIG. 6
Description: AML-12 cells are treated with different concentrations of a compound of Formula (I), Formula (Ia), Formula (Ib), Formula (II), or Formula (III), or a pharmaceutically acceptable salt thereof. Cells are then lysed, and analyzed by SDS-PAGE/western blot. Blocking and antibody incubations are then done and each protein present is detected with its specific antibody.
AML-12 cells were treated with different concentrations of Compound 1 or Compound 17 for 24 hours. Cells were then lysed in lysis buffer (50 mM Tris, 150 mM KCl, EDTA 1 mM, NP40 1%) containing protease and phosphatase inhibitors, and analyzed by SDS-PAGE/western blot. Blocking and antibody incubations were done in 5% milk. Each protein present was detected with its specific antibody. Tubulin antibody was obtained from Sigma Inc, FoxO1 and phopho-FoxO1 (Ser256) antibodies were obtained from Cell Signaling. Antibody detection reactions were developed by enhanced chemiluminescence (Advansta, Calif., USA) using x-ray films.

hACMSD (ACMSD1) = hACMSD (ACMSD1) (Homo sapiens (Human), UniProt Q8TDX5); experiment: Determination of ACMSD1 inhibition, spectrophotometrical in vitro assay; format: biochemical; settings: 500 μM
Description: The activity of compounds as inhibitors of ACMSD1 is determined in a spectrophotometrical in vitro assay. The pre-assay mixture is incubated and a compound of Formula (I), Formula (Ia), Formula (Ib), Formula (II), or Formula (III), or a pharmaceutically acceptable salt thereof, and ACMSD1 solution is then added. The effect of ACMS concentration on the enzyme activity is investigated by varying 3-hydroxyanthranilic acid (3OH-HA) concentration in the pre-assay mixture. Kinetic parameters are calculated from the initial velocity data using a Lineweaver-Burk plot.
The activity of compounds 1-19 and 21-23 as inhibitors of ACMSD1 was determined by measuring the conversion of 30H-Anthranilic Acid into product (i.e., ACMS) in a spectrophotometrical in vitro assay.
The pre-assay mixture consisting of 3-hydroxyanthranilic acid (3OH-HA), 3-hydroxyanthranilic acid, 3,4-diOxygenase (HAO), and a dialyzed crude extract of E. coli BL21 (DE3) cells expressing the recombinant enzyme, was incubated at 25° C. with monitoring of the increase in absorbance at 360 nm due to the formation of ACMS from 3OH-HA. After the reaction was completed within ˜2 mins, an aliquot of ACMSD1 solution (prepared and purified from Pichia Pastoris overexpressing the recombinant enzyme) was added, and the decrease in absorbance at 360 nm was followed at 15 second intervals. […]

Chain of hACMSD (ACMSD1) (Q8TDX5 whole entry): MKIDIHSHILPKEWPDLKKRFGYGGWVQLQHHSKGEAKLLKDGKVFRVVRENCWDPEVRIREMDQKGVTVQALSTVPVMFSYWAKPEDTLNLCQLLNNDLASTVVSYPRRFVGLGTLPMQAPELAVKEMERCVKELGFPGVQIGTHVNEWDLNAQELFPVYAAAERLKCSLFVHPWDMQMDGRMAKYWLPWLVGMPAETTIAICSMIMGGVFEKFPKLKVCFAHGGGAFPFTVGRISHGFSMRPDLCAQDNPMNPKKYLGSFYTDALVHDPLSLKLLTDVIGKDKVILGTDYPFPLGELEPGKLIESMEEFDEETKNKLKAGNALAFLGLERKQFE
Chain of ACMSD-1 (Q8TDX5 whole entry): as above
Chain of hERG potassium channel (Q12809 whole entry): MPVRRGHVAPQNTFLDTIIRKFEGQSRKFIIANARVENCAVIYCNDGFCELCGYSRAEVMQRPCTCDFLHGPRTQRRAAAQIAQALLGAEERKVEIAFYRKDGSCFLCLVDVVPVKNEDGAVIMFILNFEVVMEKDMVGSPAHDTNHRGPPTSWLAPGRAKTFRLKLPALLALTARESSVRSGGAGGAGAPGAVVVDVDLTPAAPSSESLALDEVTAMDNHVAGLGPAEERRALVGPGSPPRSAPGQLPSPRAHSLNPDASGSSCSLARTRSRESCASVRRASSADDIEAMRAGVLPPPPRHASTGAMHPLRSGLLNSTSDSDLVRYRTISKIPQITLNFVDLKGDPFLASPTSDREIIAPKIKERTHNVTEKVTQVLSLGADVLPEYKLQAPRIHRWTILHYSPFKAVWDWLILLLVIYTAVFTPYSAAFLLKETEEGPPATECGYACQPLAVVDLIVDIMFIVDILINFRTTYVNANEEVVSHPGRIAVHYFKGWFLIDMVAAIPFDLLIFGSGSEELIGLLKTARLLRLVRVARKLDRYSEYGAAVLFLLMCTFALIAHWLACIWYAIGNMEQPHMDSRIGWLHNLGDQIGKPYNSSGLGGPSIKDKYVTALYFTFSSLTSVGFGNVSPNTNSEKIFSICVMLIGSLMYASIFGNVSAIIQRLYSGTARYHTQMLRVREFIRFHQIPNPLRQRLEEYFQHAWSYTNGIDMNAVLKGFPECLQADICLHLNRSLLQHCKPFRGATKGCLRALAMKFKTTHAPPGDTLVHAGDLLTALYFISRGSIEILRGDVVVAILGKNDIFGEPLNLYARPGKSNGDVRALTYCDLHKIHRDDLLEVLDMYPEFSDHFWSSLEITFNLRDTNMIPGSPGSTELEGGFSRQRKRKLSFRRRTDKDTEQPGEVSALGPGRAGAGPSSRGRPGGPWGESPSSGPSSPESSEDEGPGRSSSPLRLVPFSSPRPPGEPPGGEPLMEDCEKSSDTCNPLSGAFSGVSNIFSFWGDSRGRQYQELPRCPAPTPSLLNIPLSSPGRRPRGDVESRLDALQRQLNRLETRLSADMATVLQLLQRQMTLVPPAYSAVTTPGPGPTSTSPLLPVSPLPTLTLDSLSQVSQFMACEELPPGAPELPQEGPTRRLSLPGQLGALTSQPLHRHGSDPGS

Row | Structure (SMILES) | ACMSD-1 activity in over-expression cell-based assay (ACMSD-1) | SOD2 activity (SOD2 [1]) | SOD2 activity (SOD2 [2]) | Sod2 mRNA levels [3] | Sod2 mRNA levels [4] | Cytotoxicity AML-12 (AML-12 cells) | Cytotoxicity Hep-G2 (HePG2 cells) | hERG (hERG potassium channel) | FoxO1 phosphorylation at Ser256 (FoxO1) | inhibition of purified ACMSD-1 enzyme (hACMSD (ACMSD1)) [%]
1 | N#Cc1c(-c2ccccc2)nc(SCc2cccc(C(=O)O)c2)[nH]c1=O [Compound 1] | inhibited ACMSD-1 activity, in a dose dependent manner | induced in a dose-dependent manner | induced in a dose-dependent manner | increased in a dose-dependent manner | increased in a dose-dependent manner | Not Toxic | Not Toxic | No Activity | decrease in FoxO1 phosphorylation at Ser256 with increasing dose | –
2 | CCCCC(CC)COC(=O)c1ccccc1C(=O)O (stereo not shown) [MEHP, mono-(2-ethylhexyl)phthalate] | – | – | – | – | – | – | – | – | – | 70
